From patent publication US20240067617A1 (Albireo AB, priority 2022, published 2024)
pIC50: −log10 of the molar value.

Experiments:
[1] = target: T1, hLBAT (Homo sapiens, UniProt Q14973); test: LBAT (h/m) assay: 3H-taurocholic acid uptake in human LBAT-overexpressing cells; format: cell-based; conditions: 0.3 μM 3H-taurocholic acid + 7.5 μM cold taurocholic acid, 20 minutes at 37° C.
T1 construct: expressed in transfected cells; kept under Geneticin selection
T1 sequence (Q14973 1-349): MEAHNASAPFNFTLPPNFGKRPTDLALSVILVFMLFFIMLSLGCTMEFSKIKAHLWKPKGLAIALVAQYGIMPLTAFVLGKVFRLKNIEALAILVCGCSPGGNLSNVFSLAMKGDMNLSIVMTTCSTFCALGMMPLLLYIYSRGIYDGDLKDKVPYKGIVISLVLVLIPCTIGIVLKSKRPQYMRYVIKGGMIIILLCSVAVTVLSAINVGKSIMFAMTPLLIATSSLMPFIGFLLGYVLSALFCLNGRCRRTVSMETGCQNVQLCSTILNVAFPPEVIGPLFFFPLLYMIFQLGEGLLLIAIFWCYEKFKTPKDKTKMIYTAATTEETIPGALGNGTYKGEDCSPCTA
Method in brief: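 Human or mouse LBAT-overexpressing cells given 10-point inhibitor series with 0.3 μM 3H-taurocholic acid plus cold taurocholic acid (7.5 μM human, 25 μM mouse), 0.2% DMSO, for 20 min at 37° C. Stopped on ice, washed with 1 mM unlabelled taurocholic acid; uptake measured by scintillation counting.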

[2] = target: T2, hIBAT (Homo sapiens, UniProt Q12908); test: IBAT (h/m) assay: 3H-taurocholic acid uptake in human IBAT-overexpressing cells; format: cell-based; conditions: 0.25 μM 3H-taurocholic acid + 5 μM cold taurocholic acid, 20 minutes at 37° C., highest test concentration 10 μM
T2 construct: expressed in transfected cells; kept under Puromycin selection
T2 sequence (Q12908 1-348): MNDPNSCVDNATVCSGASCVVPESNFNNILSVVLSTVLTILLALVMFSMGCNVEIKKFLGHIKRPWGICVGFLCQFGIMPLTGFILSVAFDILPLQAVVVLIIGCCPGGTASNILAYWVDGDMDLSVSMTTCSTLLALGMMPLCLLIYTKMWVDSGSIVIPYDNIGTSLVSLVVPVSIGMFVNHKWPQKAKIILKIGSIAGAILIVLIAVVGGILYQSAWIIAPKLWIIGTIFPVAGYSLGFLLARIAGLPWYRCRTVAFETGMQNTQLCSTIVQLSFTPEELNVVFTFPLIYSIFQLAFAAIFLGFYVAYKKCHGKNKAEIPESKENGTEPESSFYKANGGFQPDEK
Method in brief: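 Human or mouse IBAT-overexpressing cells cultured 48 h, then exposed for 20 min at 37 °C to compounds (top 10 μM, 3-fold, 10 points; 0.2% DMSO) with 0.25 μM 3H-taurocholic acid plus 5 μM cold taurocholic acid. Uptake stopped on ice, cells washed with cold 1 mM taurocholic acid, radioactivity counted by scintillation.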

Row | Compound | pIC50 [1] | pIC50 [2]
1 | CCCCC1(CC)CN(c2ccccc2)c2cc(OC)c(CSCC(=O)O)cc2S(=O)(=O)N1 (single isomer, unassigned) [45, enantiomer 1] | < 6.00 | 7.55
2 | CCCCC1(C)CN(c2ccccc2)c2cc(SC)c(CSCC(=O)O)cc2S(=O)(=O)C1 (single isomer, unassigned) [5, enantiomer 2] | 5.36 | 7.36
3 | CCCCC1(CC)CN(c2ccccc2)c2cc(OC)c(CSCC(=O)O)cc2S(=O)(=O)N1 (racemic) [Example 44, 2-(((3-butyl-3-ethyl-7-methoxy-1,1-dioxido-5-phenyl-2,3,4,5-tetrahydro-1,2,5-benzothiadiazepin-8-yl)methyl)thio)acetic acid] | < 6.00 | 8.28
4 | CCCCC1(CC)CN(c2ccccc2)c2cc(S(C)(=O)=O)c(CSCC(=O)O)cc2S(=O)(=O)N1 (racemic) [Example 47, 2-(((3-butyl-3-ethyl-7-(methylsulfonyl)-1,1-dioxido-5-phenyl-2,3,4,5-tetrahydro-1,2,5-benzothiadiazepin-8-yl)methyl)thio)acetic acid] | < 6.00 | 7.85
5 | CCCCC1CN(c2ccccc2)c2cc(OC)c(CSCC(=O)O)cc2S(=O)(=O)N1C (single isomer, unassigned) [36, enantiomer 1] | < 5.00 | < 5.00
6 | CCCCC1(C)CN(c2ccccc2)c2cc(OC)c(CSC(C)(C)C(=O)O)cc2S(=O)(=O)C1 (single isomer, unassigned) [42, enantiomer 2] | 6.62 | < 5.00
7 | CCCCC1(CC)CN(c2ccc(F)cc2)c2cc(SC)c(CSCC(=O)O)cc2S(=O)(=O)C1 (single isomer, unassigned) [7, enantiomer 2] | 5.31 | 8.55
8 | CCCCC1CN(c2ccccc2)c2cc(OC)c(CSCC(=O)O)cc2S(=O)(=O)N1C (single isomer, unassigned) [36, enantiomer 2] | 6.81 | 5.56
9 | CCCCC1(CCCC)CN(c2ccccc2)c2cc(OC)c(CSCC(=O)O)cc2S(=O)(=O)C1 [Example 31, 2-(((3,3-dibutyl-7-methoxy-1,1-dioxido-5-phenyl-2,3,4,5-tetrahydro-1,5-benzothiazepin-8-yl)methyl)thio)acetic acid] | < 5.48 | 8.89
10 | CCCC[C@@H]1CN(c2ccccc2)c2cc(SC)c(CSCC(=O)O)cc2S(=O)(=O)N1 [Example 50, (R)-2-(((3-butyl-7-(methylthio)-1,1-dioxido-5-phenyl-2,3,4,5-tetrahydro-1,2,5-benzothiadiazepin-8-yl)methyl)thio)acetic acid] | 7.30 | 6.25
11 | CCCCC1(CC)CN(c2ccccc2)c2cc(OC)c(CSC(C)(C)C(=O)O)cc2S(=O)(=O)C1 (single isomer, unassigned) [26, enantiomer 1] | 6.98 | 6.71
12 | CCCCC1(CC)CN(c2ccccc2)c2cc(N(C)C)c(CSCC(=O)O)cc2S(=O)(=O)N1 (stereo not shown) [Example 46, 2-(((3-butyl-7-(dimethylamino)-3-ethyl-1,1-dioxido-5-phenyl-2,3,4,5-tetrahydro-1,2,5-benzothiadiazepin-8-yl)methyl)thio)acetic acid] | < 6.00 | 8.32
13 | CCCCC1(CC)CN(c2ccccc2)c2cc(SC)c(CSC(C)(C)C(=O)O)cc2S(=O)(=O)N1C (stereo not shown) [Example 24] | 7.07 | < 5.48
14 | CCCC[C@@H]1CN(c2ccccc2)c2cc(OC)c(CSCC(=O)O)cc2S(=O)(=O)N1 [Example 51, (R)-2-(((3-butyl-7-methoxy-1,1-dioxido-5-phenyl-2,3,4,5-tetrahydro-1,2,5-benzothiadiazepin-8-yl)methyl)thio)acetic acid] | 6.85 | 5.58
